Several values for one entry are separate records, joined by “and”; a condition that tells them apart may be missing. Equal values may be shown once. Where a name gives a salt, the structure may show the parent alone.

A short description of this assay: Tested for its ability to antagonize epinephrine induced primary wave aggregation in human platelets at alpha-2A-adrenergic receptor sites.
In turn, `OC(c1cnc[nH]1)(c1cccc2ccccc12)C(F)(F)F` (stereo unspecified) [2,2,2-Trifluoro-1-(1H-imidazol-4-yl)-1-naphthalen-1-yl-ethanol; hydrochloride] yielded an IC50 greater than 300 µM.
Turning to `CC(c1cnc[nH]1)c1cccc2ccccc12` (stereo unspecified) [4-(1-Naphthalen-1-yl-ethyl)-1H-imidazole], the IC50 is 12.3 µM and 9.1 µM.
As for `COC(c1cnc[nH]1)c1cccc2ccccc12` (stereo unspecified) [4-(Methoxy-naphthalen-1-yl-methyl)-1H-imidazole; hydrochloride], the figure is 380 µM; as for `c1ccc2c(Cc3cnc[nH]3)cccc2c1` [4-Naphthalen-1-ylmethyl-1H-imidazole; hydrochloride], 3 µM; as for `OC(c1cnc[nH]1)c1cccc2ccccc12` (stereo unspecified) [(1H-Imidazol-4-yl)-naphthalen-1-yl-methanol; hydrochloride], 61.9 µM.
As for `O=C(c1cnc[nH]1)c1cccc2ccccc12` [(1H-Imidazol-4-yl)-naphthalen-1-yl-methanone; oxalic acid], the figure is 580 µM.

The IC50 is the concentration that gives 50% inhibition. A high value points to weaker potency in that assay.

(Values after BindingDB's records for doi:10.1021/jm00041a011 (Ohio State University, 1994).)
